Test results as given in US7977304B2, “FK 228 derivates as HDAC inhibitors” (University of Southampton Highfield, priority 2005, dated 2011).

Experiments:
[1] = tested on: MCF7 human breast cancer cells; assay: Activity Assay 1: CyQuant cell proliferation assay, MCF7; assay type: cell-based
Procedure: (§1) Method; Cell proliferation assays were performed using the CyQuant™ assay system (Molecular Probes, Inc. USA) according to the manufacturer's instructions. This system utilises a proprietary green fluorescent dye which undergoes strong fluorescent enhancement on binding cellular nucleic acids, to allow determination of cell number with a linear detection range between 50 to 250,000 cells. Estrogen receptor positive MCF7 breast cancer cells (ECAAC) and NHDF cells (Cambrex, UK) were plated in 96 well plates, at a density of 1000 cells in 100 μl of cell culture medium per well. Compounds were added a minimum of 5 hours later, in serial dilutions in cell culture medium, in 100 μl volumes at 2× final concentration. Six days later cell culture medium was removed by inversion of the plate onto blotting paper and cells were gently washed once with 200 μl PBS. […] Fluorescence was then measured for each well using a Cytofluor II Fluoresence Multiwell Plate Reader and CytoFluor II software with filters at 480 nm for excitation and 520 nm for emission maxima. Cell proliferation was determined for mean values of duplicate samples as percentages relative to untreated cell samples (=100%). […]
(§2) MCF7 and NHDF were incubated with the indicated concentrations of compounds. After 6 days cell growth relative to untreated cells (=100%) was determined using the CyQuant™ assay. […]

[2] = tested on: normal human dermal fibroblasts (NHDF); assay: Activity Assay 1: CyQuant cell proliferation assay, NHDF; assay type: cell-based; conditions: 144 h, read-out: mean IC50 for growth inhibition (±SD), NHDF
Procedure: as §1, §2

[3] = tested on: HUT78 T-cell leukaemia cells; assay: CyQuant cell proliferation assay, HUT78; assay type: cell-based, human; conditions: data not shown
[4] = tested on: histone acetylation in MCF7 breast cancer cells; assay: Activity Assay 4: histone acetylation by immunoblotting, MCF7; assay type: cell-based; conditions: MCF7, 24 hours
Procedure: (§3) Method; Cardiac myocytes were prepared as described in Chembiochem. 2005 January; 6(1):162-70 and incubated with the indicated concentrations of compound 001 for 24 hours. MCF7 cells were incubated with the indicated concentrations of compound 001 for 24 hours. Expression of total histone H4 acetylation, or specific acetylation of Histone H4-K8 or Histone H3-K9 was analysed by Western blotting, as previously described (Brimmell et al. Br J Cancer. 1999 November; 81(6):1042-51) using antibodies from Upstate Biotech.
(§4) (A) MCF7 cells were incubated with compound 001 for 24 hours. Histone H4 acetylation was measured by immunoblotting. (B) Cardiac myocytes were incubated with indicated compound 001 for 24 hours. Histone H4 acetylation was measured by immunoblotting. (C) MCF7 cells were incubated with compound 001 for 24 hours. Histone H3-K9 and Histone H4-K8 acetylation was measured by immunoblotting

[5] = tested on: histone acetylation in cardiac myocytes; assay: Activity Assay 4: histone acetylation by immunoblotting, cardiac myocytes; assay type: cell-based; conditions: 24 hours
Procedure: as §3, §4

[6] = tested on: acetylated histone H4 in primary chronic lymphocytic leukaemia cells; assay: Histone H4 acetylation in primary chronic lymphocytic leukaemia cells; assay type: cell-based; conditions: data not shown
[7] = tested on: HDAC (Hela Nuclear Extract); assay: Activity Assay 5: in vitro HDAC fluorescent activity assay (Biomol kit); assay type: biochemical; conditions: compounds reduced with DTT prior to analysis, 37° C., 1 hour, read-out: Inhibition of HDAC activity IC50
Procedure: We analysed the ability of compounds to inhibit in vitro HDAC activity. In vitro HDAC assays were performed using a HDAC fluorescent activity assay kit (Biomol, UK) according to the manufacturer's instructions. Compounds were reduced prior to analysis; 1 mM compound was reduced with 30 mM DTT in DMSO overnight at room temperature, protected from light. Reactions were then set up in a 96-well plate. […] Serial dilutions were set up for each compound. Reactions containing Hela extract only and assay buffer only were also set up. 25 μl diluted Fluor de Lys™ substrate (100-fold in assay buffer) was added to each reaction, which were then incubated at 37° C. for 1 hour. The reaction was stopped by addition of 50 μl Fluor de Lys™ Developer (20-fold dilution in assay buffer, plus TSA diluted 100-fold). […] Inhibition of in vitro HDAC activity was determined for mean values of duplicate samples as percentages relative to HeLa extract only reactions. IC50 values were calculated using GraphPad Prism software.

[8] = tested on: PC3 prostate cancer cells; assay: Activity Assay 6: CyQuant cell growth inhibition, PC3; assay type: cell-based; conditions: Homo sapiens, 96 h, PC3, 4 days
Procedure: (§5) We analysed the ability of compounds to inhibit the in vitro growth of human cancer cells. Cell proliferation assays were performed using the CyQuant™ assay system (Molecular Probes, Inc. USA) according to the manufacturer's instructions. MCF7 breast, A2780 ovarian and PC3 and LNCAP prostate cancer cells were plated in 96 well plates, at a density of 1000 cells for MCF7 cells or 5000 cells for M780/PC3/LNCAP cells, in 100 μl of cell culture medium per well. Compounds were added a minimum of 5 hours later, in serial dilutions in cell culture medium, in 100 μl volumes at 2× final concentration. Cell culture medium was removed after 4 (A2780, PC3 or LNCAP cells) or 6 days (MCF7 cells) by inversion of the plate onto blotting paper and cells were gently washed once with 200 μl PBS. Plates were frozen immediately for a minimum of one hour at −80° C. and then thawed. 200 μl of 1× CyQuant cell lysis buffer supplemented with dye, made according to the manufacturer's instruction, was added immediately to each well and incubated at room temperature for 3-5 minutes. Fluorescence was then measured for each well using a Cytofluor II Fluoresence Multiwell Plate Reader and CytoFluor II software with filters at 480 nm for excitation and 520 nm for emission maxima. Cell proliferation was determined for mean values of duplicate samples as percentages relative to untreated cell samples (=100%). Growth inhibition curves were used to derive IC50 values.

[9] = tested on: LNCAP prostate cancer cells; assay: Activity Assay 6: CyQuant cell growth inhibition, LNCAP; assay type: cell-based; conditions: Homo sapiens, 96 h, 4 days
Procedure: as §5

[10] = tested on: inflammation in Balb/c mice; assay: Activity Assay 8: oxazolone-induced ear inflammation in mice; assay type: in vivo; conditions: 24 hours; for Change in ear weight: Mean ± SD, 8 animals per group
Procedure: We analysed the ability of compound 9A (the compound of formula (2) on page 7) to inhibit inflammation in mice. Balb/c mice were sensitised by application of 5% (w/v) oxazolone to abdominal shaved skin. After 7 days mice were challenged by topical application of 3% (w/v) oxalazone to the left ear and acetone to the right ear. After 30 minutes test compounds dissolved in acetone were applied to the ears (dorsal and ventral surface).

- IC50 ([1]; Homo sapiens, 144 h, MCF7, 6 days, CyQuant, mean ± SD of multiple experiments, read-out: mean IC50 for growth inhibition (±SD), MCF7): 121 ± 52 nM
- IC50 [7]: 9.9 nM
- IC50 [8]: 50 nM
- IC50 [9]: 252 nM
SMILES: CC(C)[C@H]1NC(=O)[C@H]2CSSCC/C=C/[C@H](CC(=O)N[C@H](C)C(=O)N2)OC(=O)CNC1=O [Compound 9A, (E)-(1S,7R,10S,21R)-7-isopropyl-21-methyl-2-oxa-12,13-dithia-5,8,20,23-tetraaza-bicyclo[8.7.6]tricos-16-ene-3,6,9,19,22-pentaone]
- potency of cancer cell growth inhibition compared with SAHA ([1]; MCF7, p=0.003, Student's t-test): significantly more potent than SAHA
- IC50 [2]: 420 ± 42 nM
- growth of HUT78 T-cell leukaemia cells [3]: inhibited the growth of these cells
- Histone H3-K9 and Histone H4-K8 acetylation, MCF7 cells [4]: specific Histone H3-K9 and Histone H4-K8 acetylation
- Histone H4 acetylation, MCF7 cells [4]: induces the accumulation of acetylated histone H4
- Histone H4 acetylation, cardiac myocytes [5]: induces the accumulation of acetylated histone H4
- levels of acetylated histone H4, primary chronic lymphocytic leukaemia cells [6]: increased the levels of acetylated histone H4
- % inhibition compared to vehicle ([10]; 0.1% topical in acetone): 33.3%
- Change in ear weight ([10]; 0.1% topical in acetone): 42.4 ± 4.3 mg
- % inhibition compared to vehicle ([10]; 1% topical in acetone): 63.0%
- Change in ear weight ([10]; 1% topical in acetone): 23.5 ± 3.2 mg
